Each structure is given as a SMILES string. Where two headings read alike, the source gives them in different places.

The subject of one experiment is phospho-ERK. Kind of experiment: Cellular phospho-ERK assay. Type of experiment: cell-based. The note with it: NCI-H358 cells, 2 hour incubation, ratio of p-Erk vs total Erk, read-out: IC50 (nM) pERK (Cell). Summed up: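 NCI-H358 cells seeded overnight, then exposed to compound dose-response titrations for 2 hours at 37° C. in RPMI. Lysates assayed by AlphaLISA SureFire Ultra multiplex for p-Erk and total Erk; ratio p-Erk/total Erk used as readout, IC50 from 4-parameter logistic fit.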

For experiment [1], the target named is Biotinylated KRAS G12C protein (Homo sapiens (Human), UniProt P01116, C118S/C51S/C80L/G12C). Briefly: SOS-catalyzed nucleotide exchange assay (TR-FRET). The experiment is classed as biochemical. Particulars: in vitro apparent potency; preincubation time of 60 minutes prior to addition of SOS. Summed up:
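Biotinylated KRAS G12C preloaded with Bodipy-GDP and Tb-streptavidin, then incubated with compound (10-point, 3-fold series) for 60 min at RT. Exchange started with SOS and GTP for 60 min. TR-FRET 520/495 ratio normalised to DMSO and saturating-inhibitor controls; four-parameter fit.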
For orientation: TR-FRET usually uses a lanthanide donor and a delayed reading to cut background.

Chain of Biotinylated KRAS G12C protein (P01116 other isoform, or with tags, fused parts or gaps, stated change not applied): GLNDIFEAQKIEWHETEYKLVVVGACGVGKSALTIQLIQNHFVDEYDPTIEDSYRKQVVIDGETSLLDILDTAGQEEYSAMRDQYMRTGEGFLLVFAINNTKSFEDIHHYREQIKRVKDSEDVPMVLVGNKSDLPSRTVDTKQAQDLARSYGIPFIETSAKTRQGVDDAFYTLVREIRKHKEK

What is called IC50 is the concentration that gives 50% inhibition. For `C=CC(=O)N1C[C@H](C)N(c2nc(=O)n3c4nc(c(F)cc24)-c2c(ccc(F)c2F)OCC2(CCc4ccnc(C(C)C)c4-3)CC2)C[C@H]1C` [Example 62, 2′-[(2S,5R)-2,5-dimethyl-4-(prop-2-enoyl)piperazin-1-yl]-17′,18′,21′-trifluoro-6′-(propan-2-yl)-10′,11′-dihydro-4′H,13′H-spiro[cyclopropane-1,12′-[14]oxa [3,5,7,20]tetraaza[1,19] (ethanediylidene)pyrido[4,3-f]pyrimido[1,6-h][1,8,10]benzoxadiazacyclotri-decin]-4′-one], the IC50 in the experiment with phospho-ERK (Homo sapiens, NCI-H358, 2 h) was 54 nM; in experiment [1], 3.5 nM.

Consider `C=CC(=O)N1C[C@H](C)N(c2nc(=O)n3c4nc(c(Cl)cc24)-c2c(F)cccc2OCCCc2ccnc(C(C)C)c2-3)C[C@H]1C` [Example 63, 20-chloro-2-[(2S,5R)-2,5-dimethyl-4-(prop-2-enoyl)piperazin-1-yl]-17-fluoro-6-(propan-2-yl)-11,12-dihydro-4H,10H-1,18-(ethanediylidene)pyrido[4,3-e]pyrimido[1,6-g][1,7,9] benzoxadiazacyclodo-decin-4-one], for which the IC50 in the experiment on phospho-ERK (Homo sapiens, NCI-H358, 2 h) is 2 nM; in experiment [1] it was 3.6 nM.

For `[2H]C1([2H])Oc2ccc(F)c(F)c2-c2nc3c(cc2F)c(N2C[C@@H](C)N(C(=O)C=C)C[C@@H]2C)nc(=O)n3-c2c(ccnc2C(C)C)OC1([2H])[2H]` [Example 64, 2-[(2S,5R)-2,5-Dimethyl-4-(prop-2-enoyl)piperazin-1-yl]-16,17,20-trifluoro-6-(propan-2-yl)-11,12-di[(^2H)hydro](11,12-^2H2)-4H-1,18-(ethanediylidene)pyrido [4,3-e]pyrimido[1,6-g][1,4,7,9] benzodioxadiazacyclo-dodecin-4-one], the concentration for half-maximal inhibition (IC50) was determined as 33 nM in the experiment with phospho-ERK (Homo sapiens, NCI-H358, 2 h) and 5.7 nM in experiment [1].

On to `C=CC(=O)N1CCN(c2nc(=O)n3c4nc(c(F)cc24)-c2c(ccc(F)c2F)OCC(F)(F)CCc2ccnc(C(C)C)c2-3)CC1` [Example 65, 12,12,17,18,21-pentafluoro-6-(propan-2-yl)-2-[4-(prop-2-enoyl)piperazin-1-yl]-10,11,12,13-tetrahydro-4H-1,19-(ethanediylidene)pyrido[4,3-f]pyrimido[1,6-h][1,8,10] benzoxadiazacyclotri-decin-4-one], for which the IC50 stood at 15 nM in the experiment on phospho-ERK (Homo sapiens, NCI-H358, 2 h) and 2.6 nM in experiment [1].

In the case of `C=CC(=O)N1CCN(c2nc(=O)n3c4nc(c(F)cc24)-c2c(ccc(F)c2F)OCC(F)(F)CCc2ccnc(C(C)C)c2-3)C[C@H]1C` [Example 66, 12,12,17,18,21-pentafluoro-2-[(3R)-3-methyl-4-(prop-2-enoyl)piperazin-1-yl]-6-(propan-2-yl)-10,11,12,13-tetrahydro-4H-1,19-(ethanediylidene) pyrido[4,3-f]pyrimido[1,6-h] [1,8,10]benzoxadiazacyclo-tridecin-4-one], the IC50 in the experiment with phospho-ERK (Homo sapiens, NCI-H358, 2 h) came out at 30 nM; in experiment [1], 5.3 nM.

Consider `[2H]C1([2H])Oc2ccnc(C(C)C)c2-n2c(=O)nc(N3C[C@@H](C)N(C(=O)C=C)C[C@@H]3C)c3cc(F)c(nc32)-c2c(F)ccc(F)c2OC1([2H])[2H]` [Example 67, 2-[(2S,5R)-2,5-Dimethyl-4-(prop-2-enoyl)piperazin-1-yl]-14,17,20-trifluoro-6-(propan-2-yl)-11,12-di[(^2H)hydro](11,12-^2H2)-4H-1,18-(ethanediylidene)pyrido [4,3-e]pyrimido[1,6-g][1,4,7,9] benzodioxadiazacyclo-dodecin-4-one], for which the IC50 with phospho-ERK (Homo sapiens, NCI-H358, 2 h) amounted to 50 nM; in experiment [1], 12 nM.

As for `C=CC(=O)N1C[C@H](C)N(c2nc(=O)n3c4nc(c(F)cc24)-c2cccc4cnn(c24)CCCCc2ccnc(C(C)C)c2-3)C[C@H]1C` [Example 68, 2-[(2S,5R)-2,5-dimethyl-4-(prop-2-enoyl)piperazin-1-yl]-22-fluoro-6-(propan-2-yl)-10,11,12,13-tetrahydro-4H-1,20-(ethanediylidene)pyrido [4′,3′:12,13]pyrimido [1′,6′:1,2][1,3,7]triaza-cyclotridecino[5,6,7-hi] indazol-4-one], the IC50 in the experiment on phospho-ERK (Homo sapiens, NCI-H358, 2 h) turned out to be 6.3 nM; in experiment [1], 4.5 nM.

Take `C=CC(=O)N1C[C@H](C)N(c2nc(=O)n3c4nc(c(F)cc24)-c2c(F)cccc2OCCOc2c(Cl)cnc(C(C)C)c2-3)C[C@H]1C` [Example 70, 9-chloro-2-[(2S,5R)-2,5-dimethyl-4-(prop-2-enoyl)piperazin-1-yl]-17,20-difluoro-6-(propan-2-yl)-11,12-dihydro-4H-1,18-(ethanediylidene)pyrido[4,3-e]pyrimido[1,6-g][1,4,7,9]benzodioxadiazacyclododecin-4-one]: the IC50 was found to be 19 nM in the experiment with phospho-ERK and 1.8 nM in experiment [1].

On to `C=CC(=O)N1C[C@H](C)N(c2nc(=O)n3c4nc(c(F)cc24)-c2c(cccc2C(F)(F)F)OCCOc2ccnc(C(C)C)c2-3)C[C@H]1C` [Example 73, 2-[(2S,5R)-2,5-dimethyl-4-(prop-2-enoyl)piperazin-1-yl]-20-fluoro-6-(propan-2-yl)-17-(trifluoromethyl)-11,12-dihydro-4H-1,18-(ethanediylidene)pyrido[4,3-e]pyrimido[1,6-g][1,4,7,9]benzodioxadiazacyclododecin-4-one], for which the results for the IC50 (with phospho-ERK; in experiment [1]) were 13 nM and 6.5 nM, respectively.

Take `C=CC(=O)N1C[C@H](C)N(c2nc(=O)n3c4nc(c(Cl)cc24)-c2c(ccc(F)c2F)OCCCc2ncnc(C(C)C)c2-3)C[C@H]1C` [Example 74, 20-chloro-2-[(2S,5R)-2,5-dimethyl-4-(prop-2-enoyl)piperazin-1-yl]-16,17-difluoro-6-(propan-2-yl)-11,12-dihydro-4H,10H-1,18-ethenodipyrimido[4,5-e:1′,6′-g][1,7,9]benzoxadiazacyclododecin-4-one]: the IC50 in the experiment on phospho-ERK (Homo sapiens, NCI-H358, 2 h) was found to be 3.6 nM; in experiment [1], 0.51 nM.

As to `C=CC(=O)N1C[C@H](C)N(c2nc(=O)n3c4nc(c(F)cc24)-c2c(F)cccc2OCCCc2ccnc(C(C)C)c2-3)C[C@H]1C` [Example 75, 2-[(2S,5R)-2,5-dimethyl-4-(prop-2-enoyl)piperazin-1-yl]-17,20-difluoro-6-(propan-2-yl)-11,12-dihydro-4H,10H-1,18-ethenopyrido[4,3-e]pyrimido[1,6-g][1,7,9]benzoxadiazacyclododecin-4-one], the concentration for half-maximal inhibition (IC50) with phospho-ERK (Homo sapiens, NCI-H358, 2 h) is 8.8 nM; in experiment [1], 1.7 nM.

On to `C=CC(=O)N1C[C@H](C)N(c2nc(=O)n3c4nc(c(F)cc24)-c2c(Cl)cccc2OCCCc2ccnc(C(C)C)c2-3)C[C@H]1C` [Example 76, 17-chloro-2-[(2S,5R)-2,5-dimethyl-4-(prop-2-enoyl)piperazin-1-yl]-20-fluoro-6-(propan-2-yl)-11,12-dihydro-4H,10H-1,18-ethenopyrido[4,3-e]pyrimido[1,6-g][1,7,9]benzoxadiazacyclododecin-4-one], for which the IC50 turned out to be 3.6 nM in the experiment with phospho-ERK (Homo sapiens, NCI-H358, 2 h) and 2.3 nM in experiment [1].

As for `C=CC(=O)N1C[C@H](C)N(c2nc(=O)n3c4nc(c(F)cc24)-c2c(F)c(F)cc(F)c2OCCCc2ccnc(C(C)C)c2-3)C[C@H]1C` [Example 77, 2-[(2S,5R)-2,5-dimethyl-4-(prop-2-enoyl)piperazin-1-yl]-14,16,17,20-tetrafluoro-6-(propan-2-yl)-11,12-dihydro-4H,10H-1,18-ethenopyrido[4,3-e]pyrimido[1,6-g][1,7,9]benzoxadiazacyclododecin-4-one], the IC50 was 45 nM in the experiment on phospho-ERK (Homo sapiens, NCI-H358, 2 h) and 2.4 nM in experiment [1].

As for `C=CC(=O)N1C[C@H](C)N(c2nc(=O)n3c4nc(c(F)cc24)-c2c(ccc(F)c2F)OCCCc2ccnc(C(C)C)c2-3)C[C@H]1C` [Example 78, 2-[(2S,5R)-2,5-dimethyl-4-(prop-2-enoyl)piperazin-1-yl]-16,17,20-trifluoro-6-(propan-2-yl)-11,12-dihydro-4H,10H-1,18-ethenopyrido[4,3-e]pyrimido[1,6-g][1,7,9]benzoxadiazacyclododecin-4-one], the IC50 in the experiment with phospho-ERK (Homo sapiens, NCI-H358, 2 h) was found to be 18 nM; in experiment [1], 2.4 nM.

Take `C=CC(=O)N1CCN(c2nc(=O)n3c4nc(c(F)cc24)-c2c(F)ccc(F)c2OCCCCc2ccnc(C(C)C)c2-3)[C@@H](C)C1` [Example 79, 15,18,21-trifluoro-2-[(2S)-2-methyl-4-(prop-2-enoyl)piperazin-1-yl]-6-(propan-2-yl)-10,11,12,13-tetrahydro-4H-1,19-(ethanediylidene)pyrido[4,3-f]pyrimido[1,6-h][1,8,10]benzoxadiazacyclotridecin-4-one]: the IC50 worked out at 7 nM in the experiment with phospho-ERK (Homo sapiens, NCI-H358, 2 h) and 2.6 nM in experiment [1].

For `C=CC(=O)N1C[C@H](C)N(c2nc(=O)n3c4nc(c(F)cc24)-c2c(cc(F)c(F)c2F)OCCCc2ccnc(C(C)C)c2-3)C[C@H]1C` [Example 80, 2-[(2S,5R)-2,5-dimethyl-4-(prop-2-enoyl)piperazin-1-yl]-15,16,17,20-tetrafluoro-6-(propan-2-yl)-11,12-dihydro-4H,10H-1,18-ethenopyrido[4,3-d]pyrimido[1,6-g][1,7,9]benzoxadiazacyclododecin-4-one], the IC50 in the experiment with phospho-ERK (Homo sapiens, NCI-H358, 2 h) is 54 nM; in experiment [1], 2.6 nM.

With `C=CC(=O)N1C[C@H](C)N(c2nc(=O)n3c4nc(c(Cl)cc24)-c2cc(F)cc(F)c2OCCCc2ccnc(C(C)C)c2-3)C[C@H]1C` [Example 82, 20-chloro-2-[(2S,5R)-2,5-dimethyl-4-(prop-2-enoyl)piperazin-1-yl]-14,16-difluoro-6-(propan-2-yl)-11,12-dihydro-4H,10H-1,18-ethenopyrido[4,3-e]pyrimido[1,6-g][1,7,9]benzoxadiazacyclododecin-4-one], the IC50 in the experiment with phospho-ERK (Homo sapiens, NCI-H358, 2 h) came to 36 nM; in experiment [1], 5.9 nM.

(Values after patent US20240043448A1, “Small Molecule Inhibitors of KRAS G12C Mutant” (Merck Sharp & Dohme LLC, priority 2019, published 2024).)
